This is an account of results in publication PMC5217690 (The Journal of Biological Chemistry, 2016).

In one assay the target is T1, TrmDEC (Escherichia coli, UniProt P0A873).
T1 construct: gene trmD; full-length, N-terminal His tag (pET28b), expressed in E. coli BL21(DE3), tag kept
T1 sequence (P0A873 2-255): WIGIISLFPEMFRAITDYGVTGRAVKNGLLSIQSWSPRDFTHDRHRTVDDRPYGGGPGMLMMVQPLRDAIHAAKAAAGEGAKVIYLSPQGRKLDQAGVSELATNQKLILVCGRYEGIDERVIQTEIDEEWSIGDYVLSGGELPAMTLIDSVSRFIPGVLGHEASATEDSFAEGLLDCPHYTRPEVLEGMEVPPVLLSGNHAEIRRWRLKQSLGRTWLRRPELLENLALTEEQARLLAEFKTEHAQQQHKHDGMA
The assay can be described thus: ITC. It is filed as binding.

The target in another assay is T2, TrmDSA (Staphylococcus aureus, UniProt Q2FHJ8).
T2 construct: gene trmD; full-length, N-terminal His tag (pET28b), expressed in E. coli BL21(DE3), tag kept
T2 sequence (Q2FHJ8 2-245): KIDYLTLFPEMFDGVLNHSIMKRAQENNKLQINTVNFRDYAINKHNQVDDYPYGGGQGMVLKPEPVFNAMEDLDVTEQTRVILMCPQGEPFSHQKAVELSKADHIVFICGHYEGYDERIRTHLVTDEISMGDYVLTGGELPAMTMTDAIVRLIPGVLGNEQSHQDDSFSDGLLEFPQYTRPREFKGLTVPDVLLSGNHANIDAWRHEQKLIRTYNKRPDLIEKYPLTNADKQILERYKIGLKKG
Kind of assay: ITC. It is filed as binding.

The structures appear in SMILES notation.

Regarding `C[S+](CC[C@H](N)C(=O)O)C[C@H]1O[C@@H](n2cnc3c(N)ncnc32)[C@H](O)[C@@H]1O` (some centres unmarked) [AdoMet], the Kd worked out at 21.5 µM at TrmDEC and 121 µM at TrmDSA.

The term Kd denotes a measure of binding affinity in units of concentration. Read a low Kd as tighter binding.
